# System: peptide-specific IgG in sera of cancer patients and healthy donors
# Test: Measurement of anti-peptide IgG in plasma by LUMINEX multiplexed flow cytometric assay
# Format: binding, human
# Description: The levels of anti-peptide immunoglobulin G (IgG) were measured by the LUMINEX™ system (multiplexed flow cytometric assay) as previously reported (Komatsu N, Shichijo S, Nakagawa M, Itoh K. New multiplexed flow cytometric assay to measure anti-peptide antibody: a novel tool for monitoring immune responses to peptides used for immunization. Scand J Clin Lab Invest 2004; 64:1-11). In brief, plasma was incubated with 25 μl of peptide-coupled color-coded beads for 2 hr at room temperature on a plate shaker. After incubation, the mixture was washed with a vacuum manifold apparatus and incubated with 100 μl of biotinylated goat anti-human IgG (γ chain-specific)(BA-3080, Vector Laboratories, Burlingame, Calif., USA) for 1 h at room temperature. The plate was then washed, followed by the addition of 100 μl of streptavidin-PE (S-866, Molecular Probes, Eugene, Oreg., USA) into wells, and was incubated for 30 min at room temperature on a plate shaker. The bound beads were washed three times followed by the addition of 100 μl of Tween-PBS into each well. Fifty μl of sample was detected using the LUMINEX™ system (multiplexed flow cytometric assay). To confirm the specificity of IgG to a SCCA peptide, sample plasma was cultured in plates coated with a corresponding SCCA peptide, or with an irrelevant SCCA peptide. After the operation was repeated three times, the levels of the corresponding SCCA peptide-specific IgG in the resulting supernatant were determined by the LUMINEX™ system (multiplexed flow cytometric assay).
# These 9 SCCA-derived peptides were screened based on their ability to be recognized by IgG in cancer patients. Peptide-specific IgG was measured by a multiplexed flow cytometric assay (LUMINEX™ (multiplexed flow cytometric assay)). The plasma samples were derived from 35 uterine cervical SCC patients, 10 breast adenocarcinoma patients, 10 pancreatic adenocarcinoma patients, 10 gastric adenocarcinoma, and 6 colon adenocarcinoma patients. The level of fluorescence intensity was judged to be significant when exceeded 100 at an 1/100 dilution.
sequence,measurement,setting,value
"EFHCNHPFL (SCCA 362-370 peptide) [SCCA-derived peptide, position 362-370]",Total: healthy donors with significant peptide-reactive IgG / donors tested,"10 healthy donors, significant when fluorescence intensity exceeded 100 at 1/100 dilution",1/10
same,Total: cancer patients with significant peptide-reactive IgG / patients tested,"71 cancer patients, significant when fluorescence intensity exceeded 100 at 1/100 dilution",10/71
same,Fluorescence intesity,"serum of Breast Ca. patient #36, 1:100 dilution",10
same,Fluorescence intesity,"serum of Breast Ca. patient #37, 1:100 dilution",24
same,Fluorescence intesity,"serum of Breast Ca. patient #38, 1:100 dilution",8
same,Fluorescence intesity,"serum of Breast Ca. patient #39, 1:100 dilution",11
same,Fluorescence intesity,"serum of Breast Ca. patient #40, 1:100 dilution",7
same,Fluorescence intesity,"serum of Breast Ca. patient #41, 1:100 dilution",215
same,Fluorescence intesity,"serum of Breast Ca. patient #42, 1:100 dilution",19
same,Fluorescence intesity,"serum of Breast Ca. patient #43, 1:100 dilution",10
same,Fluorescence intesity,"serum of Breast Ca. patient #44, 1:100 dilution",0
same,Fluorescence intesity,"serum of Breast Ca. patient #45, 1:100 dilution",20
same,Fluorescence intesity,"serum of Colon Ca. patient #66, 1:100 dilution",0
same,Fluorescence intesity,"serum of Colon Ca. patient #67, 1:100 dilution",0
same,Fluorescence intesity,"serum of Colon Ca. patient #68, 1:100 dilution",0
same,Fluorescence intesity,"serum of Colon Ca. patient #69, 1:100 dilution",0
same,Fluorescence intesity,"serum of Colon Ca. patient #70, 1:100 dilution",1
same,Fluorescence intesity,"serum of Colon Ca. patient #71, 1:100 dilution",19
same,Fluorescence intesity,"serum of Gastric Ca. patient #56, 1:100 dilution",0
same,Fluorescence intesity,"serum of Gastric Ca. patient #57, 1:100 dilution",0
same,Fluorescence intesity,"serum of Gastric Ca. patient #58, 1:100 dilution",6
same,Fluorescence intesity,"serum of Gastric Ca. patient #59, 1:100 dilution",10
same,Fluorescence intesity,"serum of Gastric Ca. patient #60, 1:100 dilution",0
same,Fluorescence intesity,"serum of Gastric Ca. patient #61, 1:100 dilution",1
same,Fluorescence intesity,"serum of Gastric Ca. patient #62, 1:100 dilution",0
same,Fluorescence intesity,"serum of Gastric Ca. patient #63, 1:100 dilution",0
same,Fluorescence intesity,"serum of Gastric Ca. patient #64, 1:100 dilution",0
same,Fluorescence intesity,"serum of Gastric Ca. patient #65, 1:100 dilution",0
same,Fluorescence intesity,"serum of Healthy Donor #1, 1:100 dilution",0
same,Fluorescence intesity,"serum of Healthy Donor #2, 1:100 dilution",37
same,Fluorescence intesity,"serum of Healthy Donor #3, 1:100 dilution",0
same,Fluorescence intesity,"serum of Healthy Donor #4, 1:100 dilution",0
same,Fluorescence intesity,"serum of Healthy Donor #5, 1:100 dilution",0
same,Fluorescence intesity,"serum of Healthy Donor #6, 1:100 dilution",0
same,Fluorescence intesity,"serum of Healthy Donor #7, 1:100 dilution",0
same,Fluorescence intesity,"serum of Healthy Donor #8, 1:100 dilution",283
same,Fluorescence intesity,"serum of Healthy Donor #9, 1:100 dilution",29
same,Fluorescence intesity,"serum of Healthy Donor #10, 1:100 dilution",0
same,Fluorescence intesity,"serum of Pancreas Ca. patient #46, 1:100 dilution",0
same,Fluorescence intesity,"serum of Pancreas Ca. patient #47, 1:100 dilution",1
same,Fluorescence intesity,"serum of Pancreas Ca. patient #48, 1:100 dilution",339
same,Fluorescence intesity,"serum of Pancreas Ca. patient #49, 1:100 dilution",0
same,Fluorescence intesity,"serum of Pancreas Ca. patient #50, 1:100 dilution",0
same,Fluorescence intesity,"serum of Pancreas Ca. patient #51, 1:100 dilution",0
same,Fluorescence intesity,"serum of Pancreas Ca. patient #52, 1:100 dilution",104
same,Fluorescence intesity,"serum of Pancreas Ca. patient #53, 1:100 dilution",0
same,Fluorescence intesity,"serum of Pancreas Ca. patient #54, 1:100 dilution",6
same,Fluorescence intesity,"serum of Pancreas Ca. patient #55, 1:100 dilution",0
same,Fluorescence intesity,"serum of Uterine cervical Ca. patient #1, 1:100 dilution",0
same,Fluorescence intesity,"serum of Uterine cervical Ca. patient #2, 1:100 dilution",0
same,Fluorescence intesity,"serum of Uterine cervical Ca. patient #3, 1:100 dilution",0
same,Fluorescence intesity,"serum of Uterine cervical Ca. patient #4, 1:100 dilution",0
same,Fluorescence intesity,"serum of Uterine cervical Ca. patient #5, 1:100 dilution",3
same,Fluorescence intesity,"serum of Uterine cervical Ca. patient #6, 1:100 dilution",611
same,Fluorescence intesity,"serum of Uterine cervical Ca. patient #7, 1:100 dilution",11
same,Fluorescence intesity,"serum of Uterine cervical Ca. patient #8, 1:100 dilution",49
same,Fluorescence intesity,"serum of Uterine cervical Ca. patient #9, 1:100 dilution",90
same,Fluorescence intesity,"serum of Uterine cervical Ca. patient #10, 1:100 dilution",15
same,Fluorescence intesity,"serum of Uterine cervical Ca. patient #11, 1:100 dilution",28
same,Fluorescence intesity,"serum of Uterine cervical Ca. patient #12, 1:100 dilution",37
same,Fluorescence intesity,"serum of Uterine cervical Ca. patient #13, 1:100 dilution",25
same,Fluorescence intesity,"serum of Uterine cervical Ca. patient #14, 1:100 dilution",17
same,Fluorescence intesity,"serum of Uterine cervical Ca. patient #15, 1:100 dilution",106
same,Fluorescence intesity,"serum of Uterine cervical Ca. patient #16, 1:100 dilution",191
same,Fluorescence intesity,"serum of Uterine cervical Ca. patient #17, 1:100 dilution",56
same,Fluorescence intesity,"serum of Uterine cervical Ca. patient #18, 1:100 dilution",50
same,Fluorescence intesity,"serum of Uterine cervical Ca. patient #19, 1:100 dilution",48
same,Fluorescence intesity,"serum of Uterine cervical Ca. patient #20, 1:100 dilution",104
same,Fluorescence intesity,"serum of Uterine cervical Ca. patient #21, 1:100 dilution",22
same,Fluorescence intesity,"serum of Uterine cervical Ca. patient #22, 1:100 dilution",27
same,Fluorescence intesity,"serum of Uterine cervical Ca. patient #23, 1:100 dilution",56
same,Fluorescence intesity,"serum of Uterine cervical Ca. patient #24, 1:100 dilution",1234
same,Fluorescence intesity,"serum of Uterine cervical Ca. patient #25, 1:100 dilution",21
same,Fluorescence intesity,"serum of Uterine cervical Ca. patient #26, 1:100 dilution",83
same,Fluorescence intesity,"serum of Uterine cervical Ca. patient #27, 1:100 dilution",36
same,Fluorescence intesity,"serum of Uterine cervical Ca. patient #28, 1:100 dilution",153
same,Fluorescence intesity,"serum of Uterine cervical Ca. patient #29, 1:100 dilution",20
same,Fluorescence intesity,"serum of Uterine cervical Ca. patient #30, 1:100 dilution",35
same,Fluorescence intesity,"serum of Uterine cervical Ca. patient #31, 1:100 dilution",133
same,Fluorescence intesity,"serum of Uterine cervical Ca. patient #32, 1:100 dilution",23
same,Fluorescence intesity,"serum of Uterine cervical Ca. patient #33, 1:100 dilution",93
same,Fluorescence intesity,"serum of Uterine cervical Ca. patient #34, 1:100 dilution",16
same,Fluorescence intesity,"serum of Uterine cervical Ca. patient #35, 1:100 dilution",21

# — patent US8030443B2, “Squamous cell carcinoma antigen-derived peptide binding to HLA-A24 molecule” (Kurume University, priority 2005, dated 2011)
